Laboratory results taken from paper PMC12169669, “Regio- and Stereoselective Synthesis of Nitro-fatty Acids as NRF2 Pathway Activators Working under Ambient or Hypoxic Conditions” (Journal of Medicinal Chemistry, 2025).

Test system: Hmox1
Assay: Relative gene expression of Hmox1 in BMCs (qRT-PCR)
Type: cell-based, mouse
Conditions: 2 μM, 4 h; for Hmox1 relative expression: 4% and 1% oxygen
Excerpt: Primary bone marrow cells (BMCs) were isolated from 8–12-week-old male C57BL/6 mice (25–30 g, AnLab, Czech Republic). Mice were housed under standard conditions. BMCs were isolated as follows: The day before isolation, phosphate-buffered saline (PBS), ACK Lysis Buffer (A10492-01, Thermo Fisher Scientific), and Iscove’s Modified Dulbecco’s Medium (IMDM) (12440-053, Thermo Fisher Scientific) were placed in a hypoxic chamber (InvivO2 400, Baker Ruskinn, UK) with adjustable oxygen control to equilibrate for the target oxygen concentrations. On the day of the experiment, animals were euthanized using ketamine/xylazine, and bilateral femurs were extracted. BMCs were flushed with hypoxic (1% O2 unless stated otherwise) PBS supplemented with 2% fetal bovine serum (FBS; low endotoxin, FB-1101/500, Biosera, France). After hemolysis at room temperature using hypoxic ACK Lysis Buffer, nucleated BMCs were washed with hypoxic PBS + 2% FBS and counted using a TC20 automated cell counter (Bio-Rad). Cells were kept under hypoxic conditions prior to treatment. The medium for BMC culture, consisting of IMDM with 2% FBS and 1% penicillin/streptomycin (LM-A4118/100, Biosera, France), was supplemented with 10 ng/mL mouse IL-3, 10 ng/mL mouse IL-6, and 50 ng/mL mouse stem cell factor - SCF (213-13, 216-16, and 250-03, respectively; all from PeproTech). Cells were cultured at 37 °C in a humidified atmosphere containing 5% CO2 and the specified oxygen concentrations (21%, 4%, or 1%).
For the relative gene expression of nuclear factor erythroid 2-related factor 2 (NRF2, encoded by Nfe2l2), heme oxygenase-1 (Hmox1), and Glutamate-Cysteine Ligase Modifier Subunit (Gclm) (Mm00477784_m1, Mm00516005_m1, Mm00514996_m1, all from Thermo Fisher Scientific), mouse BMC (3 × 10^6 cells) were cultivated on a 6-well plate in 1.5 mL of complete media (see Isolation and culture of primary cells), and then incubated with 2 μM NO2FAs or control (medium only) for 4 h at the specified oxygen levels (21%, 4%, or 1%). Then, the adherent and nonadherent cells were washed with PBS and lysed using a NucleoSpin RNA Plus kit (740984, Machery-Nagel; Germany). The concentration and purity of isolated RNA was assessed using an Infinite M200 Pro spectrophotometer (Tecan, Austria). Total RNA (0.2 μg) was reversely transcribed into first strand cDNA using a RevertAid First Strand cDNA Synthesis kit according to the manufacturer’s protocol (K1622, Thermo Fisher Scientific). qRT-PCR reactions were performed in a LightCycler480 instrument (Roche; Switzerland) using TaqMan FastAdvanced Master Mix for qPCR (4444557, Thermo Fisher Scientific) and the following program was used: uracil-N-glycosylase activation step at 50 °C for 2 min, an initial denaturation step at 95 °C for 2 min, followed by 45 cycles (95 °C for 3 s, 60 °C for 30 s), and a final cooling step at 40 °C for 1 min. Data were normalized to ribosomal protein L32 (Rpl32, Mm02528467_g1, Thermo Fisher Scientific) and presented as 2^–Δcq.
3 Expression of NRF2 and its target genes in response to NO2FA derivatives. BMCs were cultured under 4% or 1% oxygen conditions and treated for 4 h with the tested NO 2 FAs (2 μM) or medium followed by quantification of (A) Nfe2l2, (B) Hmox1, and (C) Gclm with PCR. Results are presented as relative expression across different oxygen culture conditions. Dimethyl fumarate (DMF) was added as a control. Data are expressed as mean ± SD from 3 to 7 independent experiments (n = 3–7), analyzed with one-way ANOVA with Dunnett’s multiple comparisons test compared to the controls (*p < 0.05; **p < 0.01; ***p < 0.001).
Relative expression of (A) Hmox1 and (B) Gclm in different oxygen […]
Figure S 2. Relative expression of (A) Hmox1 and (B) Gclm in different oxygen conditions. BMCs were cultured under varying oxygen conditions (21, 4, and 1%) and treated for 4 hours with the tested 10 -NO₂OA (2 µM) or medium followed by quantification […]
with PCR. […]

Structure (SMILES) | Hmox1 relative expression | Hmox1 expression at 1% oxygen compared to 21% (1% vs 21% oxygen)
CCCCCCCC/C=C(\CCCCCCCC(=O)O)[N+](=O)[O-] [9-NO2OA, (9E)-9-Nitro-oleic Acid] | significant upregulation | 
CCCCCCCC/C(=C\CCCCCCCC(=O)O)[N+](=O)[O-] [10-NO2OA, (9E)-10-Nitro-oleic Acid] | significant upregulation | significantly upregulated
CCCCCCCCC(CCCCCCCCC(=O)O)[N+](=O)[O-] (stereo not drawn) [10-NO2SA, 10-Nitro Stearic acid] | no effects | 
CCCCCC/C=C/C=C(\CCCCCCCC(=O)O)[N+](=O)[O-] [9-NO2cLA, (9E,11E)-9-Nitro Conjugated Linoleic Acid] | upregulation that was dependent on oxygen levels | 
CCCCC/C=C\C/C(=C\CCCCCCCC(=O)O)[N+](=O)[O-] [10-NO2LA, (9E,12Z)-10-Nitro Linoleic Acid] | upregulation that was dependent on oxygen levels or specific target genes | 
